Results published in patent publication US5576310A, “11-benzaldoxime-17β-methoxy-17α-methoxymethyl-estrasdiene derivatives, methods for their production and pharmaceuticals containing such compounds” (Jenapharm GmbH, priority 1994, dated 1996).

Legend:
glucocorticoid receptor = target: T1, glucocorticoid receptor (Rattus norvegicus, UniProt P06536); assay: Receptor bonding affinity: competitive bonding of 3H-dexamethasone and test compound to glucocorticoid receptor in thymus cytosol of the adrenalectomized rat; type: binding; conditions: dexamethasone = 100%; tracer 3H-dexamethasone 20 nM; 18 hours at 0-4 °C; quotient of IC50 values x 100%
T1 construct: receptors in the cytosol from animal target organs; from tissue; host or cells: thymus cytosol of adrenalectomized rat
T1 sequence (P06536 1-795): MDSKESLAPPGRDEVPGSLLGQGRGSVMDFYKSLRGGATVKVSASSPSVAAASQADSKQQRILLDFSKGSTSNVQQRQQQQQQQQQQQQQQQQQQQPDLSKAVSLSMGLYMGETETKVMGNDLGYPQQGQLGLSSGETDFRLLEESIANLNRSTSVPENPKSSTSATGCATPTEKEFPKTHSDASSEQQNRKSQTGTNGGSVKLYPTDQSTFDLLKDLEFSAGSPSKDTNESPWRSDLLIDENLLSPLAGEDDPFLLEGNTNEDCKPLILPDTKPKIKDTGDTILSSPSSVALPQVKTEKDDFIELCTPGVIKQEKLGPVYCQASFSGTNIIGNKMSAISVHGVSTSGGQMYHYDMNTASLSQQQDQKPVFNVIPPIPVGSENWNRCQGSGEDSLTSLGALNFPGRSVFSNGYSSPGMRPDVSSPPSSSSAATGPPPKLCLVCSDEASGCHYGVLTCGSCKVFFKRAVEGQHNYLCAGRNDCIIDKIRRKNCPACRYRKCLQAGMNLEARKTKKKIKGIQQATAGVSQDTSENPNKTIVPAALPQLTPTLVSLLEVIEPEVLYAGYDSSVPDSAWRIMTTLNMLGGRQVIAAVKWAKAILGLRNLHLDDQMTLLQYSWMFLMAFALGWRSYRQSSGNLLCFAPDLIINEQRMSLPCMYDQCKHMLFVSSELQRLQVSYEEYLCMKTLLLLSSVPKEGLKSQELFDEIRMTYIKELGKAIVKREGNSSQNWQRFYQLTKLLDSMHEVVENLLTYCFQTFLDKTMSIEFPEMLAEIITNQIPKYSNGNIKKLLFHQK
Procedure: Measurement of bonding affinity for receptors
Receptor bonding affinity was determined by competitive bonding of a specifically binding ^3 H labelled hormone (tracer) and the compound to be tested to receptors in the cytosol from animal target organs. It was tried to obtain receptor saturation and a balanced reaction. The following incubation conditions were selected:
Glucocorticoid receptor: thymus cytosol of the adrenalectomized rat, thymi kept at -30° C., buffer: TED. Tracer: ^3 H-dexamethasone, 20 nM; reference substance: dexamethasone.
After an incubation period of 18 hours at 0°-4° C., bonded and free steroid was separated by mixing in active carbon/dextrane (1%/0.1%), centrifuging off and measuring the bonded ^3 H activity in the supernatant.
The IC50 for the compound to be tested and for the reference substance were determined from measurements in series of concentrations.

[1] = tested on: early gravidity in the rat; assay: Inhibition of early gravidity (early abortive effect) in the rat after subcutaneous application from the 5th to 7th day of pregnancy; type: in vivo; conditions: for complete gravidity inhibition (N*/N) / complete gravidity inhibition (%) / ED 50 (complete gravidity inhibition): d5-d7; for complete gravidity inhibition (N*/N): N* females not pregnant / N inseminated females; for complete gravidity inhibition (N*/N) / complete gravidity inhibition (%): empty uteri; for ED 50 (complete gravidity inhibition): s.c., graphic determination
Procedure: Early abortive effect of RU 486 and J 914 (Example 1) and
J 900 (Example 2) in the rat after subcutaneous
application from the 5th to 7th day of pregnancy (dose
0.2 ml/animal/day in benzylbenzoate/castor oil
N number of inseminated females
N* number of females not pregnant
^++ graphic determination
Inhibition of early gravidity in the rat:
Female rats are mated in the pro-oestrus. If semen is found in the vaginal smear on the next day, this day is counted as day 1 (=d1) of the gravidity. Treatment with the test substance or vehicle is applied on d5-d7, autopsy is carried out on d9. The substances are injected subcutaneously in 0.2 ml of vehicle (benzyl benzoate/castor oil 1+4).

Relative molar bonding affinity (RBA) for the glucocorticoid receptor (glucocorticoid receptor) [%] | SMILES | complete gravidity inhibition (N*/N) ([1]; 0.1 mg/animal/day s.c.) | complete gravidity inhibition (%) ([1]; 0.1 mg/animal/day s.c.) | complete gravidity inhibition (N*/N) ([1]; 0.3 mg/animal/day s.c.) | complete gravidity inhibition (%) ([1]; 0.3 mg/animal/day s.c.) | complete gravidity inhibition (N*/N) ([1]; 1.0 mg/animal/day s.c.) | complete gravidity inhibition (%) ([1]; 1.0 mg/animal/day s.c.) | complete gravidity inhibition (N*/N) ([1]; 3.0 mg/animal/day s.c.) | complete gravidity inhibition (%) ([1]; 3.0 mg/animal/day s.c.) | ED 50 (complete gravidity inhibition) [1] [mg/animal/day] | inhibition capability of nidation, in words ([1]; as compared to RU 486)
73 | COC[C@]1(OC)CC[C@H]2[C@@H]3CCC4=CC(=O)CCC4=C3[C@@H](c3ccc(C=NOC(C)=O)cc3)C[C@@]21C [Example 1, 11β-[4-(acetyloximinomethyl)phenyl]-17β-methoxy-17α-methoxymethyl-estra-4,9-diene-3-on] | 0/6 | 0 | 1/5 | 20 | 7/10 | 70 | 5/5 | 100 | 0.6 | –
66 | CCOC(=O)ON=Cc1ccc([C@H]2C[C@@]3(C)[C@@H](CC[C@]3(COC)OC)[C@@H]3CCC4=CC(=O)CCC4=C32)cc1 [Example 2, 11β-[4-(ethoxycarbonyloximinomethyl)phenyl]-17β-methoxy-17α-methoxymethyl-estra-4,9-diene-3-on] | – | – | 0/5 | 0 | 9/10 | 90 | – | – | 0.6 | superior inhibition capability of nidation
39 | CN(C)c1ccc([C@H]2C[C@]3(C)[C@@H](CC[C@]3(O)CCCO)[C@@H]3CCC4=CC(=O)CCC4=C32)cc1 [ZK 98299, reference compound] | – | – | – | – | – | – | – | – | – | –

SMILES | Relative molar bonding affinity (RBA) for the glucocorticoid receptor (glucocorticoid receptor) [%] | complete gravidity inhibition (N*/N) ([1]; 0.1 mg/animal/day s.c.) | complete gravidity inhibition (%) ([1]; 0.1 mg/animal/day s.c.) | complete gravidity inhibition (N*/N) ([1]; 0.3 mg/animal/day s.c.) | complete gravidity inhibition (%) ([1]; 0.3 mg/animal/day s.c.) | complete gravidity inhibition (N*/N) ([1]; 1.0 mg/animal/day s.c.) | complete gravidity inhibition (%) ([1]; 1.0 mg/animal/day s.c.) | complete gravidity inhibition (N*/N) ([1]; 3.0 mg/animal/day s.c.) | complete gravidity inhibition (%) ([1]; 3.0 mg/animal/day s.c.) | ED 50 (complete gravidity inhibition) [1] [mg/animal/day] | inhibition capability of nidation, in words ([1]; as compared to RU 486)
CC#C[C@]1(O)CC[C@H]2[C@@H]3CCC4=CC(=O)CCC4=C3[C@@H](c3ccc(N(C)C)cc3)C[C@@]21C [RU 486, reference compound] | 685 | – | – | 0/5 | 0 | 2/5 | 40 | 5/5 | 100 | 1.1 | –
